From the OligoGym collection
HELM strings list units from the 5' end as sugar, base in round brackets, then linkage (d deoxyribose, r ribose, m 2'-O-methyl, p phosphodiester). Strings are as the collection lists them; they lack the last nucleoside at the 3' end of the tested compound. [moe] = 2'-O-(2-methoxyethyl) (MOE); [sp] = phosphorothioate linkage; [m5C] = 5-methylcytosine

Each substance was assayed against APP (assay: mouse, dose not given). Conditions: ASO.

Row | Substance | 3 h FOB score [score 0-7]
1 | RNA1{[moe]([m5C])[sp].[moe](T)p.[moe](T)p.[moe]([m5C])p.[moe]([m5C])[sp].d([m5C])[sp].d(A)[sp].d(T)[sp].d(T)[sp].d([m5C])[sp].d(T)[sp].d([m5C])[sp].d(T)[sp].d([m5C])[sp].d(A)[sp].[moe](T)p.[moe](G)p.[moe](A)[sp].[moe]([m5C])}$$$$ (last 3' nucleoside missing) | 0.25
2 | RNA1{[moe](A)[sp].[moe]([m5C])p.[moe](T)p.[moe](G)p.[moe](A)[sp].d(T)[sp].d(T)[sp].d(A)[sp].d(T)[sp].d([m5C])[sp].d(A)[sp].d(A)[sp].d(A)[sp].d(T)[sp].d(T)[sp].[moe]([m5C])p.[moe]([m5C])p.[moe](G)[sp].[moe](G)}$$$$ (last 3' nucleoside missing) | 0.25
3 | RNA1{[moe](G)[sp].[moe]([m5C])p.[moe](A)p.[moe](G)p.[moe]([m5C])[sp].d(A)[sp].d(G)[sp].d(G)[sp].d(T)[sp].d(T)[sp].d(T)[sp].d([m5C])[sp].d([m5C])[sp].d(A)[sp].d(T)[sp].[moe](A)p.[moe](A)p.[moe](A)[sp].[moe]([m5C])}$$$$ (last 3' nucleoside missing) | 0
4 | RNA1{[moe]([m5C])[sp].[moe](T)p.[moe]([m5C])p.[moe]([m5C])p.[moe](A)p.[moe](A)[sp].d(T)[sp].d(T)[sp].d(T)[sp].d(T)[sp].d(A)[sp].d(A)[sp].d([m5C])[sp].d(T)[sp].d(T)[sp].d(G)[sp].[moe]([m5C])p.[moe](A)[sp].[moe]([m5C])}$$$$ (last 3' nucleoside missing) | 0
5 | RNA1{[moe]([m5C])[sp].[moe]([m5C])p.[moe](T)p.[moe](T)p.[moe](T)[sp].d(G)[sp].d(T)[sp].d(T)[sp].d(T)[sp].d(G)[sp].d(A)[sp].d(A)[sp].d([m5C])[sp].d([m5C])[sp].d([m5C])[sp].[moe](A)p.[moe]([m5C])p.[moe](A)[sp].[moe](T)}$$$$ (last 3' nucleoside missing) | 0
6 | RNA1{[moe](G)[sp].[moe]([m5C])p.[moe](A)p.[moe](T)p.[moe](T)[sp].d([m5C])[sp].d(T)[sp].d([m5C])[sp].d(T)[sp].d(T)[sp].d(A)[sp].d(T)[sp].d(A)[sp].d(T)[sp].d(T)[sp].[moe]([m5C])p.[moe]([m5C])p.[moe](T)[sp].[moe](T)}$$$$ (last 3' nucleoside missing) | 0
7 | RNA1{[moe](T)[sp].[moe]([m5C])p.[moe](T)p.[moe]([m5C])p.[moe]([m5C])[sp].d(A)[sp].d(A)[sp].d(T)[sp].d(T)[sp].d(T)[sp].d(T)[sp].d(A)[sp].d(A)[sp].d([m5C])[sp].d(T)[sp].[moe](T)p.[moe](G)p.[moe]([m5C])[sp].[moe](A)}$$$$ (last 3' nucleoside missing) | 0
8 | RNA1{[moe](G)[sp].[moe]([m5C])p.[moe](A)p.[moe](A)p.[moe]([m5C])[sp].d(A)[sp].d(G)[sp].d(A)[sp].d(T)[sp].d([m5C])[sp].d(T)[sp].d([m5C])[sp].d(T)[sp].d(T)[sp].d(A)[sp].[moe](T)p.[moe](T)p.[moe]([m5C])[sp].[moe](T)}$$$$ (last 3' nucleoside missing) | 0
9 | RNA1{[moe](G)[sp].[moe]([m5C])p.[moe](T)p.[moe](G)p.[moe](T)[sp].d(T)[sp].d(G)[sp].d(T)[sp].d(A)[sp].d(G)[sp].d(G)[sp].d(A)[sp].d(A)[sp].d([m5C])[sp].d(T)[sp].[moe]([m5C])p.[moe](G)p.[moe](A)[sp].[moe](A)}$$$$ (last 3' nucleoside missing) | 4
10 | RNA1{[moe](G)[sp].[moe]([m5C])p.[moe](A)p.[moe](A)p.[moe](A)[sp].d([m5C])[sp].d([m5C])[sp].d(A)[sp].d([m5C])[sp].d(T)[sp].d(T)[sp].d([m5C])[sp].d(T)[sp].d(G)[sp].d(T)[sp].[moe](A)p.[moe](G)p.[moe]([m5C])[sp].[moe](T)}$$$$ (last 3' nucleoside missing) | 0
11 | RNA1{[moe](G)[sp].[moe](T)p.[moe](T)p.[moe](T)p.[moe]([m5C])[sp].d(G)[sp].d([m5C])[sp].d(A)[sp].d(A)[sp].d(A)[sp].d([m5C])[sp].d(A)[sp].d(T)[sp].d([m5C])[sp].d([m5C])[sp].[moe](A)p.[moe](T)p.[moe]([m5C])[sp].[moe]([m5C])}$$$$ (last 3' nucleoside missing) | 0.5
12 | RNA1{[moe](A)[sp].[moe](T)p.[moe](G)p.[moe](G)p.[moe](A)[sp].d(T)[sp].d([m5C])[sp].d(T)[sp].d(G)[sp].d(A)[sp].d(A)[sp].d(T)[sp].d([m5C])[sp].d([m5C])[sp].d([m5C])[sp].[moe](A)p.[moe]([m5C])p.[moe](T)[sp].[moe](T)}$$$$ (last 3' nucleoside missing) | 1
13 | RNA1{[moe](G)[sp].[moe]([m5C])p.[moe](T)p.[moe](T)p.[moe](A)[sp].d([m5C])[sp].d(A)[sp].d(T)[sp].d([m5C])[sp].d(A)[sp].d(T)[sp].d(T)[sp].d(T)[sp].d(T)[sp].d([m5C])[sp].[moe](T)p.[moe](T)p.[moe](G)[sp].[moe]([m5C])}$$$$ (last 3' nucleoside missing) | 0
14 | RNA1{[moe](A)[sp].[moe](G)p.[moe](G)p.[moe](A)p.[moe]([m5C])[sp].d(A)[sp].d(T)[sp].d(T)[sp].d([m5C])[sp].d(A)[sp].d(T)[sp].d(T)[sp].d(T)[sp].d(T)[sp].d(T)[sp].[moe](G)p.[moe](A)p.[moe]([m5C])[sp].[moe]([m5C])}$$$$ (last 3' nucleoside missing) | 1
15 | RNA1{[moe](G)[sp].[moe]([m5C])p.[moe](A)p.[moe](T)p.[moe]([m5C])[sp].d(A)[sp].d([m5C])[sp].d(A)[sp].d(A)[sp].d(T)[sp].d(T)[sp].d([m5C])[sp].d(T)[sp].d(T)[sp].d([m5C])[sp].[moe](A)p.[moe](T)p.[moe](T)[sp].[moe](G)}$$$$ (last 3' nucleoside missing) | 0
16 | RNA1{[moe](A)[sp].[moe](G)p.[moe](A)p.[moe](T)p.[moe](A)[sp].d([m5C])[sp].d(T)[sp].d(T)[sp].d(G)[sp].d(T)[sp].d([m5C])[sp].d(A)[sp].d(A)[sp].d([m5C])[sp].d(G)[sp].[moe](G)p.[moe]([m5C])p.[moe](A)[sp].[moe](T)}$$$$ (last 3' nucleoside missing) | 2.33
17 | RNA1{[moe](T)[sp].[moe]([m5C])p.[moe](A)p.[moe](T)p.[moe](T)[sp].d([m5C])[sp].d(T)[sp].d([m5C])[sp].d(A)[sp].d(T)[sp].d([m5C])[sp].d([m5C])[sp].d([m5C])[sp].d([m5C])[sp].d(A)[sp].[moe](G)p.[moe](G)p.[moe](T)[sp].[moe](G)}$$$$ (last 3' nucleoside missing) | 0
18 | RNA1{[moe](A)[sp].[moe]([m5C])p.[moe](T)p.[moe]([m5C])p.[moe](G)[sp].d(A)[sp].d(A)[sp].d([m5C])[sp].d([m5C])[sp].d(A)[sp].d([m5C])[sp].d([m5C])[sp].d(T)[sp].d([m5C])[sp].d(T)[sp].[moe](T)p.[moe]([m5C])p.[moe]([m5C])[sp].[moe](A)}$$$$ (last 3' nucleoside missing) | 0
